According to US10717729B2, “Thiamine-organic acid salt” (Purdue Research Foundation, priority 2018, dated 2020):
Where a name gives a salt, the structure may show the parent alone.

How the values were obtained:
[1] = dynamic moisture sorption, 25° C.
Protocol: Moisture sorption profiles were generated at 25° C. using an SGA-100 symmetrical gravimetric analyzer (TA Instrument, New Castle, Del.). The samples (5-20 mg) were exposed to 25% to 95% relative humidity (RH) at step size of 5% RH and from 95 to 99% RH at step size of 1% RH, with a maximum step time of 360 min. The equilibrium criteria were set to change of mass of less than 0.01% (w/w) for 5 min for each step. Nitrogen was used as the purge gas.

Compound | relative humidity at which high/elevated hygroscopicity is seen [1] | stability in solution
Cc1ncc(C[n+]2csc(CCO)c2C)c(N)n1.[Cl-] [Thiamine Cl, thiamine chloride] | 88 % RH | 
Cc1ncc(C[n+]2csc(CCO)c2C)c(N)n1 [Thiamine Cl HCl, thiamine chloride hydrochloride] | 95 % RH | exhibit instability in solution
